Here are results for two compounds from patent EP0382634A1, “Pyridazine derivatives, process for their preparation and pharmaceutical compositions containing them” (ELF SANOFI, priority 1989, dated 1990).

Assay [1] concerns rotations induites par la pirenzépine. The assay can be described thus: Pirenzepine-induced rotations test (Worms et al., modified: oral dosing 4 h before pirenzepine). Type of assay: in vivo. The conditions noted are these: 3 mg/kg body weight, 4 h before pirenzepine injection. How it is done:
In vivo, les composés selon l'invention ont été essayés sur le test des rotations induites par la pirenzépine décrit par Worms P. et al. (Psychopharmacology, 1987, 93, 489-493) modifié en ce que l'administration des produits par voie orale qui a eu lieu 4 heures au lieu de 30 minutes avant l'injection de pirenzépine.

A further assay deals with T1, récepteurs de type M1 (Homo sapiens, UniProt P11229).
T1 construct: une spécificité marquée pour les récepteurs centraux de type M1 vis-à-vis des récepteurs périphériques de type M2; from tissue; host or cells: central (brain) tissue
T1 sequence (P11229 1-460): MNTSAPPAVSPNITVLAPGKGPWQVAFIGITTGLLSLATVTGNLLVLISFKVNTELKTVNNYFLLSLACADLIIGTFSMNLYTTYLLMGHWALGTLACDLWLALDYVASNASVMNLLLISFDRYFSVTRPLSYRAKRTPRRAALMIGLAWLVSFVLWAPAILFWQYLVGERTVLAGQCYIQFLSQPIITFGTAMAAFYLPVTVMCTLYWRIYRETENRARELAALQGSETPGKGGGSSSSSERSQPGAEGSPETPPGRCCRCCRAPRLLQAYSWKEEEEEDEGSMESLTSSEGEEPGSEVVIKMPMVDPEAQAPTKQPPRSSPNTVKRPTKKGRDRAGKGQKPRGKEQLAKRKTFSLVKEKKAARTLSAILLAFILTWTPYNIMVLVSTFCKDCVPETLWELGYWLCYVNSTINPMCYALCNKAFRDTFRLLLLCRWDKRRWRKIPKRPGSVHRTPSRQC
Kind of assay: Muscarinic M1 receptor ligand binding (technique of Watson et al.). The conditions noted are these: in vitro; read-out: concentration inhibitrice 50 sur le ligand des récepteurs M1. From the text:
In vitro, les composés (I) ont été essayés suivant la technique décrite par Watson J.D. et al. (Life Science, 1982, 31, 2019-2029) en ce qui concerne leur activité sur les récepteurs de type M1 et selon la technique décrite par Hammer R. et al. (Nature, 1980, 283, 90,92) et Hulme E.C. et al. (Molecular Pharmacology, 1978, 14, 737-750), en ce qui concerne leur activité sur les récepteurs de type M2.

With `Cc1cc(NCc2ccccn2)nnc1-c1ccccc1` [SR 96204 A], in assay [1], the “inhibition des rotations induites par la pirenzépine” value is listed as 67%. Regarding `CCCc1cc(NCC2CCCN2CC)nnc1-c1ccccc1` (stereo not drawn) [SR 96181], the IC50 on récepteurs de type M1 worked out at 30 nM. Further, the “inhibition des rotations induites par la pirenzépine” value in assay [1] came out at 71%.
